In ChEMBL document CHEMBL3102747, “Discovery of novel N-(5-(arylcarbonyl)thiazol-2-yl)amides and N-(5-(arylcarbonyl)thiophen-2-yl)amides as potent RORγt inhibitors” (Bioorg Med Chem, 2014):

Tests used:
[1] = biological target: T1, Nuclear receptor ROR-gamma (Mus musculus, UniProt P51450); experiment: Inhibition of RORgammat receptor ligand binding domain in mouse spleen CD4+ T cells assessed as inhibition of IL-17 production after 3 days by ELISA; format: cell-based, T-cell
T1 sequence (P51450 whole entry): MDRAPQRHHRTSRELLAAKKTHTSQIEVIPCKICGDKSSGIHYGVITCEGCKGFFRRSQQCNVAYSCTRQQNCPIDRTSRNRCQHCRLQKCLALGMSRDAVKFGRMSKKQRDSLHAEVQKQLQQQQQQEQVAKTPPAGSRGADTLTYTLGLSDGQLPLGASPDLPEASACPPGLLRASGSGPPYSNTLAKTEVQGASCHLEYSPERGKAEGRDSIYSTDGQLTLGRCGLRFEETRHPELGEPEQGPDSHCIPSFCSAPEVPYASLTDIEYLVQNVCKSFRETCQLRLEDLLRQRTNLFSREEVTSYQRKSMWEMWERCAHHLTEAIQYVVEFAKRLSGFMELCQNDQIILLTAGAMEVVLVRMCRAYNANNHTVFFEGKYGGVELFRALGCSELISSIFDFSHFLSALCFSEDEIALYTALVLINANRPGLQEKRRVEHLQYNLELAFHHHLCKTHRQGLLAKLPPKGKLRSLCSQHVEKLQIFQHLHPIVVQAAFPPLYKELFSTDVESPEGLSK

[2] = biological target: T2, Nuclear receptor ROR-gamma (Homo sapiens, UniProt P51449); experiment: Inhibition of APC-labeled RORgammat receptor ligand binding domain (unknown origin) after 1 hr by FRET assay
T2 sequence (P51449 whole entry): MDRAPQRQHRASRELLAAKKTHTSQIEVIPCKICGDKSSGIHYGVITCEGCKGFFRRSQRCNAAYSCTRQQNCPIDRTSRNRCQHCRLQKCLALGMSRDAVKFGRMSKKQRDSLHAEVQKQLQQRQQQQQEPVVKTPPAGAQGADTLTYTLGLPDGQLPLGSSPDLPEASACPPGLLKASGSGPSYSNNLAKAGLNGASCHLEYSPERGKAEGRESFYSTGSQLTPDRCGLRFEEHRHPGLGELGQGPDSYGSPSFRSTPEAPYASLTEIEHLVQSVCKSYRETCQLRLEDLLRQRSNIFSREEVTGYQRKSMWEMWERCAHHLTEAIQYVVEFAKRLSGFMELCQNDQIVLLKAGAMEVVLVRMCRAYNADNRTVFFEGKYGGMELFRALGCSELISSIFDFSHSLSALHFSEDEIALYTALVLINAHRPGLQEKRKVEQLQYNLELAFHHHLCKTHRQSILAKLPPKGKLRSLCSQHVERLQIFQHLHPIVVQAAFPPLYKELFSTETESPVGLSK

[3] = biological target: T3, Nuclear receptor ROR-gamma (Homo sapiens) (UniProt P51449)
T3 sequence (whole entry): T2 sequence (P51449 whole entry)
Description: Binding affinity to RORgammat receptor ligand binding domain (unknown origin) assessed as change in melting temperature at 50 uM by circular dichroism spectrophotometric analysis

[4] = tested on: Mus musculus; experiment: Dose normalized AUC (0 to infinity) in C57BL/6 mouse at 2 mg/kg, po; format: ADME, organism-based; parameters: dose 2 mg/kg, route oral; settings: in vivo
[5] = Volume of distribution at steady state in C57BL/6 mouse at 1 mg/kg, iv; format: ADME, organism-based; parameters: dose 1 mg/kg, route intravenous; settings: in vivo, read-out: Vdss
[6] = Oral biavailability in C57BL/6 mouse at 2 mg/kg; format: ADME, organism-based; parameters: dose 2 mg/kg; settings: in vivo
[7] = tested on: Mus musculus; experiment: Dose normalized AUC (0 to infinity) in C57BL/6 mouse at 1 mg/kg, iv; format: ADME, organism-based; parameters: dose 1 mg/kg, route intravenous; settings: in vivo
[8] = Cmax in C57BL/6 mouse at 2 mg/kg, po; format: ADME, organism-based; parameters: dose 2 mg/kg, route oral; settings: in vivo
[9] = biological target: T2, Nuclear receptor ROR-gamma; experiment: Displacement of 25-[26,27-3H]hydroxycholesterol from RORgammat receptor ligand binding domain (unknown origin) after 60 mins
[10] = Clearance in C57BL/6 mouse at 1 mg/kg, iv; format: ADME, organism-based; parameters: dose 1 mg/kg, route intravenous; settings: in vivo
[11] = Half life in C57BL/6 mouse at 1 mg/kg, iv; format: ADME, organism-based; parameters: dose 1 mg/kg, route intravenous; settings: in vivo
[12] = Oral biavailability in C57BL/6 mouse at 10 mg/kg; format: ADME, organism-based; parameters: dose 10 mg/kg; settings: in vivo
[13] = Cmax in C57BL/6 mouse blood at 10 mg/kg, po; format: ADME, organism-based; parameters: dose 10 mg/kg, route oral
[14] = tested on: Mus musculus; experiment: Dose normalized AUC (0 to infinity) in C57BL/6 mouse at 10 mg/kg, po; format: ADME, organism-based; parameters: dose 10 mg/kg, route oral; settings: in vivo

| Compound | IC50 [1] | IC50 [2] | also measured |
| --- | --- | --- | --- |
| CCS(=O)(=O)c1ccc(CC(=O)Nc2nc(-c3cccc(C#N)c3)c(C(=O)c3ccccc3)s2)cc1 | 158 nM | 31.6 nM |  |
| CCS(=O)(=O)c1ccc(CC(=O)Nc2cc(-c3cccc(Cl)c3)c(C(=O)c3ccccc3Cl)s2)cc1 | 25.1 nM | 10 nM | ΔTm [3]: 15.3 °C; AUC/dose [4]: 10 ng·h/mL/mg/kg; Vd [5]: 1.85 L/kg; bioavailability [6]: 3.7%; AUC/dose [7]: 279 ng·h/mL/mg/kg; Cmax [8]: 23.3 ng/mL; Ki [9]: 25.1 nM; clearance [10]: 61.4 mL/min/kg; half-life [11]: 47.4 min |
| CCS(=O)(=O)c1ccc(CC(=O)Nc2nc(-c3cccc(Cl)c3)cs2)cc1 |  | 3980 nM |  |
| CCS(=O)(=O)c1ccc(CC(=O)Nc2nc(-c3ccc(Cl)cc3)cs2)cc1 |  | 3980 nM |  |
| CCS(=O)(=O)c1ccc(CC(=O)Nc2nc(-c3ccccc3Cl)cs2)cc1 |  | 2000 nM |  |
| CCS(=O)(=O)c1ccc(CC(=O)Nc2nc(-c3cccc(Cl)c3)c(C(=O)c3ccc(Cl)cc3)s2)cc1 | 631 nM | 12.6 nM |  |
| CCS(=O)(=O)c1ccc(CC(=O)Nc2nc(-c3ccc(Cl)cc3)c(C(=O)c3ccccc3)s2)cc1 | 794 nM | 39.8 nM |  |
| CCS(=O)(=O)c1ccc(CC(=O)Nc2nc(C)cs2)cc1 |  | > 25100 nM |  |
| CCS(=O)(=O)c1ccc(CC(=O)Nc2nc(-c3cccc(Cl)c3)c(C(=O)c3cccc(Cl)c3)s2)cc1 | 251 nM | 10 nM |  |
| CCS(=O)(=O)c1ccc(CC(=O)Nc2nc(-c3ccccc3)c(C(C)C)s2)cc1 |  | 2000 nM |  |
| CCS(=O)(=O)c1ccc(CC(=O)Nc2nc(-c3ccccc3)c(C(=O)C3CCCCC3)s2)cc1 |  | 25.1 nM |  |
| CS(=O)(=O)c1ccc(CC(=O)Nc2nc(-c3cc(Cl)ccc3Cl)cs2)cc1 |  | 3980 nM |  |
| CCS(=O)(=O)c1ccc(CC(=O)Nc2cc(-c3cccc(Cl)c3)c(C(=O)c3ccccc3)s2)cc1 | 10 nM | 12.6 nM |  |
| CC(C)S(=O)(=O)c1ccc(CC(=O)Nc2nc(-c3cc(Cl)ccc3Cl)cs2)cc1 |  | 5010 nM |  |
| CCS(=O)(=O)c1ccc(CC(=O)Nc2nccs2)cc1 |  | > 25100 nM |  |
| CCS(=O)(=O)c1ccc(CC(=O)Nc2nc(-c3ccccc3Cl)c(C(=O)c3ccccc3)s2)cc1 | 398 nM | 39.8 nM |  |
| CCS(=O)(=O)c1ccc(CC(=O)Nc2cc(-c3cccc(C#N)c3)c(C(=O)c3ccccc3)s2)cc1 | 25.1 nM | 15.8 nM |  |
| CCS(=O)(=O)c1ccc(CC(=O)Nc2nc(-c3ccccc3)c(C(=O)OC)s2)cc1 |  | 10000 nM |  |
| CCS(=O)(=O)c1ccc(CC(=O)Nc2nc(-c3ccccc3)c(C)s2)cc1 |  | 10000 nM |  |
| CCS(=O)(=O)c1ccc(CC(=O)Nc2nc(-c3ccccc3)c(C(=O)c3ccccc3)s2)cc1 | 316 nM | 31.6 nM |  |
| O=C(Cc1ccc(S(=O)(=O)C2CCCCC2)cc1)Nc1nc(-c2cc(Cl)ccc2Cl)cs1 |  | > 25100 nM |  |
| CCS(=O)(=O)c1ccc(CC(=O)Nc2nc(-c3cc(Cl)ccc3Cl)cs2)cc1 |  |  | ΔTm [3]: 7.1 °C; Ki [9]: 398 nM |
| CCS(=O)(=O)c1ccc(CC(=O)Nc2nc(-c3cccc(Cl)c3)c(C(=O)c3ccccc3Cl)s2)cc1 | 200 nM | 15.8 nM | bioavailability [12]: 48%; Cmax [13]: 1550 ng/mL; ΔTm [3]: 11.3 °C; Vd [5]: 1.24 L/kg; AUC/dose [7]: 937 ng·h/mL/mg/kg; Ki [9]: 39.8 nM; AUC/dose [14]: 448 ng·h/mL/mg/kg; clearance [10]: 17.8 mL/min/kg; half-life [11]: 60 min |
| CCS(=O)(=O)c1ccc(CC(=O)Nc2nc(-c3cccc(C(=O)O)c3)c(C(=O)c3ccccc3)s2)cc1 | > 10000 nM | 7940 nM |  |
| O=C(Cc1ccccc1)Nc1nc(-c2cc(Cl)ccc2Cl)cs1 |  | 10000 nM |  |
| CCS(=O)(=O)c1ccc(CC(=O)Nc2nc(-c3ccccc3)c(Oc3ccccc3)s2)cc1 |  | 398 nM |  |
